Test results from ChEMBL document CHEMBL4196030, “Enediynes bearing polyfluoroaryl sulfoxide as new antiproliferative agents with dual targeting of microtubules and DNA” (Eur J Med Chem, 2018).
The source made the active and inactive calls. The calls are words filed in the database; no cut-off is given here.

Tests used:
[1] = tested on: MIA PaCa-2; assay: Antiproliferative activity against human MIAPaCa2 cells after 70 hrs by alamar blue assay; assay type: functional, cell-based; conditions: MIA PaCa-2, 70 h
[2] = tested on: BEAS-2B; assay: Antiproliferative activity against human BEAS2B cells after 70 hrs by alamar blue assay; assay type: cell-based
[3] = tested on: BEAS-2B; assay: Cytotoxicity against human BEAS2B cells assessed as reduction in cell viability after 70 hrs by alamar blue assay; assay type: cell-based
[4] = tested on: HBL-100; assay: Antiproliferative activity against human HBL100 cells after 70 hrs by alamar blue assay; assay type: cell-based; conditions: HBL-100, 70 h
[5] = tested on: HBL-100; assay: Cytotoxicity against human HBL100 cells assessed as reduction in cell viability after 70 hrs by alamar blue assay; assay type: cell-based; conditions: HBL-100, 70 h
[6] = tested on: HUVEC; assay: Antiproliferative activity against HUVEC after 70 hrs by alamar blue assay; assay type: cell-based; conditions: Homo sapiens
[7] = tested on: HUVEC; assay: Cytotoxicity against HUVEC assessed as reduction in cell viability after 70 hrs by alamar blue assay; assay type: cell-based; conditions: Homo sapiens
[8] = tested on: MIA PaCa-2; assay: Cytotoxicity against human MIAPaCa2 cells assessed as reduction in cell viability after 70 hrs by alamar blue assay; assay type: cell-based; conditions: MIA PaCa-2, 70 h
[9] = tested on: A498; assay: Disruption of microtubule network in human A498 cells at 5 times antiproliferative IC50 after 1 to 12 hrs by immunofluorescence assay; assay type: cell-based
[10] = Induction of supercoiled plasmid complementary DNA3 cleavage at 100 uM after 1 hr by gel electrophoresis method
[11] = tested on: A549; assay: Disruption of microtubule network in human A549 cells at 5 times antiproliferative IC50 after 1 to 12 hrs by immunofluorescence assay; assay type: cell-based
[12] = organism: Homo sapiens; assay: Disruption of microtubule network in human MIAPaCa2 cells at 5 times antiproliferative IC50 after 1 to 12 hrs by immunofluorescence assay; assay type: cell-based
[13] = tested on: MIA PaCa-2; assay: Potency index, ratio of 5-fluorouracil IC50 to compound IC50 for antiproliferative activity against human MIAPaCa2 cells; assay type: functional
[14] = tested on: MDA-MB-231; assay: Antiproliferative activity against human MDA-MB-231 cells after 70 hrs by alamar blue assay; assay type: functional, cell-based; conditions: MDA-MB-231, 70 h
[15] = tested on: K562; assay: Antiproliferative activity against human K562 cells after 70 hrs by alamar blue assay; assay type: functional, cell-based; conditions: K562, 70 h
[16] = tested on: MOLT-4; assay: Antiproliferative activity against human MOLT4 cells after 70 hrs by alamar blue assay; assay type: functional, cell-based; conditions: MOLT-4, 70 h
[17] = tested on: A549; assay: Antiproliferative activity against human A549 cells after 70 hrs by alamar blue assay; assay type: functional, cell-based; conditions: A549, 70 h
[18] = tested on: A498; assay: Antiproliferative activity against human A498 cells after 70 hrs by alamar blue assay; assay type: functional, cell-based; conditions: A498, 70 h
[19] = tested on: Caco-2; assay: Antiproliferative activity against human Caco2 cells after 70 hrs by alamar blue assay; assay type: functional, cell-based; conditions: Caco-2, 70 h
[20] = tested on: PC-3; assay: Antiproliferative activity against human PC3 cells after 70 hrs by alamar blue assay; assay type: functional, cell-based; conditions: PC-3, 70 h
[21] = tested on: A-431; assay: Antiproliferative activity against human A431 cells after 70 hrs by alamar blue assay; assay type: functional, cell-based; conditions: A-431, 70 h
[22] = Antiproliferative activity against human GERL3.0 cells after 70 hrs by alamar blue assay; assay type: functional, cell-based
[23] = Ratio of IC50 for antiproliferative activity against human BEAS2B cells to IC50 for cytotoxicity against human BEAS2B cells; assay type: cell-based, BEAS-2B; conditions: read-out: Ratio IC50
[24] = Ratio of IC50 for antiproliferative activity against human HBL100 cells to IC50 for cytotoxicity against human HBL100 cells; assay type: cell-based, HBL-100; conditions: read-out: Ratio IC50
[25] = Ratio of IC50 for antiproliferative activity against human MIAPaCa2 cells to IC50 for cytotoxicity against human MIAPaCa2 cells; parameters: species or system MIA PaCa-2
[26] = Induction of supercoiled plasmid complementary DNA3 cleavage at 100 uM after 1 hr under LED light irradiation by gel electrophoresis method
[27] = tested on: MDA-MB-231; assay: Antiproliferative activity against human MDA-MB-231 cells preincubated for 4 hrs followed by 0.6 J/cm2 light irradiation for 10 mins and measured after 70 hrs by alamar blue assay; assay type: functional, cell-based; conditions: MDA-MB-231, light or radiation study
[28] = tested on: MOLT-4; assay: Antiproliferative activity against human MOLT4 cells preincubated for 4 hrs followed by 0.6 J/cm2 light irradiation for 10 mins and measured after 70 hrs by alamar blue assay; assay type: functional, cell-based; conditions: MOLT-4, light or radiation study
[29] = tested on: A549; assay: Antiproliferative activity against human A549 cells preincubated for 4 hrs followed by 0.6 J/cm2 light irradiation for 10 mins and measured after 70 hrs by alamar blue assay; assay type: functional, cell-based; conditions: A549, light or radiation study
[30] = tested on: A498; assay: Antiproliferative activity against human A498 cells preincubated for 4 hrs followed by 0.6 J/cm2 light irradiation for 10 mins and measured after 70 hrs by alamar blue assay; assay type: functional, cell-based; conditions: A498, light or radiation study
[31] = tested on: Caco-2; assay: Antiproliferative activity against human Caco2 cells preincubated for 4 hrs followed by 0.6 J/cm2 light irradiation for 10 mins and measured after 70 hrs by alamar blue assay; assay type: functional, cell-based; conditions: Caco-2, light or radiation study
[32] = tested on: PC-3; assay: Antiproliferative activity against human PC3 cells preincubated for 4 hrs followed by 0.6 J/cm2 light irradiation for 10 mins and measured after 70 hrs by alamar blue assay; assay type: functional, cell-based; conditions: PC-3, light or radiation study
[33] = tested on: A-431; assay: Antiproliferative activity against human A431 cells preincubated for 4 hrs followed by 0.6 J/cm2 light irradiation for 10 mins and measured after 70 hrs by alamar blue assay; assay type: functional, cell-based; conditions: A-431, light or radiation study
[34] = Antiproliferative activity against human GERL3.0 cells preincubated for 4 hrs followed by 0.6 J/cm2 light irradiation for 10 mins and measured after 70 hrs by alamar blue assay; assay type: functional, cell-based; conditions: light or radiation study
[35] = tested on: MIA PaCa-2; assay: Antiproliferative activity against human MIAPaCa2 cells preincubated for 4 hrs followed by 0.6 J/cm2 light irradiation for 10 mins and measured after 70 hrs by alamar blue assay; assay type: functional, cell-based; conditions: MIA PaCa-2, light or radiation study
[36] = Selectivity ratio of IC50 for antiproliferative activity against human MIAPaCa2 cells under dark condition to IC50 for antiproliferative activity against human MIAPaCa2 cells under 0.6 J/cm2 light irradiation; assay type: functional, MIA PaCa-2
[37] = Selectivity ratio of IC50 for antiproliferative activity against human MDA-MB-231 cells under dark condition to IC50 for antiproliferative activity against human MDA-MB-231 cells under 0.6 J/cm2 light irradiation; assay type: functional
[38] = Selectivity ratio of IC50 for antiproliferative activity against human MOLT4 cells under dark condition to IC50 for antiproliferative activity against human MOLT4 cells under 0.6 J/cm2 light irradiation; assay type: functional, MOLT-4
[39] = Selectivity ratio of IC50 for antiproliferative activity against human A549 cells under dark condition to IC50 for antiproliferative activity against human A549 cells under 0.6 J/cm2 light irradiation; assay type: functional
[40] = Selectivity ratio of IC50 for antiproliferative activity against human Caco2 cells under dark condition to IC50 for antiproliferative activity against human Caco2 cells under 0.6 J/cm2 light irradiation; assay type: functional, Caco-2
[41] = Selectivity ratio of IC50 for antiproliferative activity against human PC3 cells under dark condition to IC50 for antiproliferative activity against human PC3 cells under 0.6 J/cm2 light irradiation; assay type: functional, PC-3
[42] = Selectivity ratio of IC50 for antiproliferative activity against human A431 cells under dark condition to IC50 for antiproliferative activity against human A431 cells under 0.6 J/cm2 light irradiation; assay type: functional, A-431
[43] = Selectivity ratio of IC50 for antiproliferative activity against human GERL3.0 cells under dark condition to IC50 for antiproliferative activity against human GERL3.0 cells under 0.6 J/cm2 light irradiation; assay type: functional
[44] = Selectivity ratio of IC50 for antiproliferative activity against human A498 cells under dark condition to IC50 for antiproliferative activity against human A498 cells under 0.6 J/cm2 light irradiation; assay type: functional

## [O-][S+](CC#Cc1c(C#CCO)sc2ccccc12)c1c(F)c(F)c(F)c(F)c1F (stereo unspecified)
[1]
  IC50: 2200 nM

## COc1cccc2c1C(=O)c1c(O)c3c(c(O)c1C2=O)C[C@@](O)(C(=O)CO)C[C@@H]3O[C@H]1C[C@H](N)[C@H](O)[C@H](C)O1 [DOXORUBICIN]
[2]
  IC50: 2400 nM
[3]
  IC50: 18600 nM
[4]
  IC50: 80 nM
[5]
  IC50: 8500 nM
[6]
  IC50: 150 nM
[7]
  IC50: 480 nM
[8]
  IC50: 3100 nM

## COc1cc2c(c(OC)c1OC)-c1ccc(OC)c(=O)cc1[C@@H](NC(C)=O)CC2
[9]
  Activity: Active

## [O-][S+](CC#Cc1ccccc1C#CCO)c1c(F)c(F)c(F)c(F)c1F (stereo unspecified)
[1]
  IC50: 2600 nM
[10]
  Activity: inactive
[11]
  Activity: Active
[12]
  Activity: Active

## [O-][S+](CC#Cc1cccnc1C#CCO)c1c(F)c(F)c(F)c(F)c1F (stereo unspecified)
[1]
  IC50: 800 nM
[13]
  Ratio IC50: 6
[14]
  IC50: 1200 nM
[15]
  IC50: 700 nM
[16]
  IC50: 600 nM
[17]
  IC50: 1600 nM
[18]
  IC50: 3400 nM
[19]
  IC50: 1000 nM
[20]
  IC50: 1400 nM
[21]
  IC50: 1500 nM
[22]
  IC50: 900 nM
[2]
  IC50: 1000 nM
[3]
  IC50: 19600 nM
[23]
  selectivity ratio: 18.6
[4]
  IC50: 1400 nM
[5]
  IC50: 27100 nM
[24]
  selectivity ratio: 19.3
[6]
  IC50: 600 nM
[7]
  IC50: 8800 nM
[8]
  IC50: 20500 nM
[25]
  Ratio IC50: 25.3
[10]
  Activity: inactive
[9]
  Activity: Active
[11]
  Activity: Active
[12]
  Activity: Active
[26]
  Activity: Active
[27]
  IC50: 500 nM
[28]
  IC50: 400 nM
[29]
  IC50: 800 nM
[30]
  IC50: 3200 nM
[31]
  IC50: 500 nM
[32]
  IC50: 500 nM
[33]
  IC50: 1100 nM
[34]
  IC50: 600 nM
[35]
  IC50: 200 nM
[36]
  Ratio IC50: 3.7
[37]
  Ratio IC50: 2.2
[38]
  Ratio IC50: 1.6
[39]
  Ratio IC50: 2
[40]
  Ratio IC50: 2
[41]
  Ratio IC50: 2.5
[42]
  Ratio IC50: 1.3
[43]
  Ratio IC50: 1.4
[44]
  Ratio IC50: 1.1

## [N-]=[N+]=NCC#Cc1ccccc1C#CC[S+]([O-])c1c(F)c(F)c(F)c(F)c1F (stereo unspecified)
[1]
  IC50: 2400 nM

## [O-][S+](CC#Cc1ccccc1C#CCCCCO)c1c(F)c(F)c(F)c(F)c1F (stereo unspecified)
[1]
  IC50: > 10000 nM

## [O-][S+](CC#Cc1cccnc1C#CCOC1CCCCO1)c1c(F)c(F)c(F)c(F)c1F (stereo unspecified)
[1]
  IC50: 1000 nM

## [O-][S+](CC#Cc1cc2ccccc2cc1C#CCO)c1c(F)c(F)c(F)c(F)c1F (stereo unspecified)
[1]
  IC50: 4700 nM
[11]
  Activity: Active
[12]
  Activity: Active

## [O-][S+](CC#Cc1ccccc1)c1c(F)c(F)c(F)c(F)c1F (stereo unspecified)
[1]
  IC50: 7800 nM

## O=S(=O)(CC#Cc1ccccc1C#CCO)c1c(F)c(F)c(F)c(F)c1F
[1]
  IC50: 3900 nM

## COc1ccc(NS(=O)(=O)c2c(F)c(F)c(F)c(F)c2F)cc1F [BATABULIN]
[2]
  IC50: 12200 nM
[3]
  IC50: > 40000 nM
[23]
  selectivity ratio: > 3.2
[4]
  IC50: 200 nM
[5]
  IC50: > 40000 nM
[24]
  selectivity ratio: > 190
[6]
  IC50: 6300 nM
[7]
  IC50: 16400 nM
[8]
  IC50: 47300 nM
[25]
  Ratio IC50: 35.8
[9]
  Activity: Active

## CCCCC(=O)OCC#Cc1ncccc1C#CC[S+]([O-])c1c(F)c(F)c(F)c(F)c1F (stereo unspecified)
[1]
  IC50: 3000 nM
[35]
  IC50: 500 nM
[36]
  Ratio IC50: 6

## CCOC(=O)c1ccc(C#CCO)c(C#CC[S+]([O-])c2c(F)c(F)c(F)c(F)c2F)c1 (stereo unspecified)
[1]
  IC50: 1600 nM

## [O-][S+](CC#Cc1ccccc1C#CCO)c1ccccc1 (stereo unspecified)
[1]
  IC50: 15900 nM
[2]
  IC50: 29500 nM
[3]
  IC50: 81900 nM
[23]
  selectivity ratio: 2.8
[4]
  IC50: 19000 nM
[5]
  IC50: 35400 nM
[24]
  selectivity ratio: 1.8
[6]
  IC50: 79800 nM
[7]
  IC50: 66200 nM
[8]
  IC50: 124000 nM
[25]
  Ratio IC50: 7.8
[9]
  Activity: inactive
[11]
  Activity: inactive
[12]
  Activity: inactive

## COCCOCOCC#Cc1ncccc1C#CC[S+]([O-])c1c(F)c(F)c(F)c(F)c1F (stereo unspecified)
[1]
  IC50: 800 nM

## Nc1ccn([C@@H]2O[C@H](CO)[C@@H](O)C2(F)F)c(=O)n1 [GEMCITABINE]
[1]
  IC50: 120 nM
